From ChEMBL document CHEMBL1201862, “PubChem BioAssay data set” (2004)
“And” between values parts separate entries of the source, which are not always exact repeats. Equal values may be shown once. The source made the active and inactive calls.

Tests used:
[1] = luciferase reporter signal suppression in cells – H4 neuroglioma cells, luminescence, dose response (AID 1990); type: functional, cell-based
[2] = system: Streptococcus sp. 'group A'; assay: Streptococcus pyogenes SK(-)GAS viability under kanamycin – luminescence, BacTiterGlo, confirmation, counter-screen for streptokinase expression inhibitor project, dose response (AID 1900); type: functional, organism-based
[3] = Luminescence Cell-Based Dose Response HTS to Identify Inhibitors of 5'UTR Stem-Loop Driven Prion Protein mRNA Translation in H4 Neuroglioblastoma Cells. [Related pubchem assays: 1827 (Project Summary), 1813 (Primary HTS)]; type: functional
[4] = alpha-synuclein stem-loop luciferase translation blockers – H4 neuroglioma cells, luminescence, confirmation (AID 1988); type: functional, cell-based
Streptokinase A = biological target: T1, Streptokinase A (Streptococcus pyogenes serotype M1, UniProt P10520); assay: viability-normalized secreted streptokinase activity reduction – plasminogen activation absorbance, OD405, dose response (AID 1914); type: functional, Streptococcus pyogenes M1 GAS;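 also: secreted streptokinase activity via plasminogen activation per viability signal from cell pellet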
T1 sequence (P10520 whole entry): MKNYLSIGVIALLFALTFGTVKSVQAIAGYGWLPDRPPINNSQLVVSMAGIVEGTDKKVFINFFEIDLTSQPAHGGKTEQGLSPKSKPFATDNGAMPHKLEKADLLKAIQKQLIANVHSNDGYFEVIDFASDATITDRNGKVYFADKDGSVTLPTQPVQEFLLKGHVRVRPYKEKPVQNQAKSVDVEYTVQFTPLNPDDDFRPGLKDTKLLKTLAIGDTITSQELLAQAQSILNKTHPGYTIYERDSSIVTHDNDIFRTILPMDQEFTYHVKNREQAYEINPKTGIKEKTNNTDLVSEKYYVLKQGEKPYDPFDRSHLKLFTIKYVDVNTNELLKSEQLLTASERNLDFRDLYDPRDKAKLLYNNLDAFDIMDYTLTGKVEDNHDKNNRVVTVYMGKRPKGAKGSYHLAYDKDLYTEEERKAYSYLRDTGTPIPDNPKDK

Streptococcus = assay: GAS UMAA2166 growth inhibition – luminescence, BacTiterGlo, counter-screen for streptokinase expression inhibitor project, dose response (AID 1915); type: functional, organism-based;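 also: potency for reduction of bacterial viability or growth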
[5] = viability loss in Vero cells – cytotoxicity control for Vif-APOBEC3G degradation inhibitor project, dose response (AID 1117358); type: functional; settings: Vero
14-3-3 protein gamma = 14-3-3 protein gamma (Homo sapiens, UniProt P61981); assay: modulators of 14-3-3 gamma client binding – dose response (AID 711); type: functional
14-3-3 protein gamma, sequence (P61981 whole entry): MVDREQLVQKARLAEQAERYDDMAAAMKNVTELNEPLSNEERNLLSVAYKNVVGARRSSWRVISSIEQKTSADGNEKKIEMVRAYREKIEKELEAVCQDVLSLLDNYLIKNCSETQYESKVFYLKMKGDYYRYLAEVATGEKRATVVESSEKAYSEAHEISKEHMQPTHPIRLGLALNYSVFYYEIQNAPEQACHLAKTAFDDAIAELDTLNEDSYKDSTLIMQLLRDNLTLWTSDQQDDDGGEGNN

[6] = biological target: T2, Short transient receptor potential channel 4 (Mus musculus, UniProt Q9QUQ5); assay: block of DAMGO-driven TRPC4 calcium entry – cell-based, HEK293 TRPC4/mu-opioid, Fluo-4 calcium, dose response (AID 434942); type: functional;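 also: potency of inhibitors blocking the TRPC4 calcium response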
T2 sequence (Q9QUQ5 whole entry): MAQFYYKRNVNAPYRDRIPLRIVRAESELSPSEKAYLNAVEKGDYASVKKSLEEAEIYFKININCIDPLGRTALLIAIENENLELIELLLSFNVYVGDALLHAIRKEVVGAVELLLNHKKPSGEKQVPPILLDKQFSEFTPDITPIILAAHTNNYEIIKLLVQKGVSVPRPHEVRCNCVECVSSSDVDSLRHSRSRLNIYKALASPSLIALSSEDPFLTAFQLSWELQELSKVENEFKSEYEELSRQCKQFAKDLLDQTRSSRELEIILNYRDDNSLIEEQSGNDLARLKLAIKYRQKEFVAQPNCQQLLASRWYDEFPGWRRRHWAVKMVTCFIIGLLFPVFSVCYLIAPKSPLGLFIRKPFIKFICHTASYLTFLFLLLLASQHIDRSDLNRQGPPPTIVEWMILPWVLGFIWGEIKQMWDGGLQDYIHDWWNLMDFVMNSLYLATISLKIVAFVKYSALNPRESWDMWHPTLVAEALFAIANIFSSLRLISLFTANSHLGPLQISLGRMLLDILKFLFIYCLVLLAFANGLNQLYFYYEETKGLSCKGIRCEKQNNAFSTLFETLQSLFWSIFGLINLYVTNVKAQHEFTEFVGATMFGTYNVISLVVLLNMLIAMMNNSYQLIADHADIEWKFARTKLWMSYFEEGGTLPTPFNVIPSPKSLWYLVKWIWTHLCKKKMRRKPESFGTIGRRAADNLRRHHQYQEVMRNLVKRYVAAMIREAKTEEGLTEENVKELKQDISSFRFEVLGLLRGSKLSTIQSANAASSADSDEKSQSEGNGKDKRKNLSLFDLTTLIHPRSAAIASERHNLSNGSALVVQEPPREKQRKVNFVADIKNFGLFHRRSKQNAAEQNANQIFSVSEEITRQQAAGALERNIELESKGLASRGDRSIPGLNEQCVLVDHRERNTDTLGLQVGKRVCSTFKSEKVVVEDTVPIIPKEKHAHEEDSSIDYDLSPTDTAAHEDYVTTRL

[7] = biological target: Mitogen-activated protein kinase 10 (Homo sapiens, UniProt P53779); assay: Dose response biochemical screening assay for inhibitors of c-Jun N-Terminal Kinase 3 (JNK3). [Related pubchem assays: 746 ]
Mitogen-activated protein kinase 10, sequence (P53779 whole entry): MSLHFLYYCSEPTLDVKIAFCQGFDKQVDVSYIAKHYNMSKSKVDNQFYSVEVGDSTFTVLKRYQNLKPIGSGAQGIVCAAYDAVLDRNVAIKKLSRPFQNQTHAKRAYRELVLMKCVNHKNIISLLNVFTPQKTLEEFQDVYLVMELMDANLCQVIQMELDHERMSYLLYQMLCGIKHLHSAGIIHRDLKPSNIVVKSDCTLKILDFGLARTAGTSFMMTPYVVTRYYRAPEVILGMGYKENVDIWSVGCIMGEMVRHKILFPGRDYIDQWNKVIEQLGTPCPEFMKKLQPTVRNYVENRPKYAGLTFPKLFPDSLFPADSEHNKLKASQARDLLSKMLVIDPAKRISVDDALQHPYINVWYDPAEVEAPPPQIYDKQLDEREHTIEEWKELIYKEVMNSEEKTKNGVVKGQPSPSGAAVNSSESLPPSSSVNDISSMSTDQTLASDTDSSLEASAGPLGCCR

fMet-Leu-Phe receptor = biological target: T3, fMet-Leu-Phe receptor (Homo sapiens, UniProt P21462); assay: formyl peptide receptor binders – dose response (AID 519); type: functional
T3 sequence (P21462 whole entry): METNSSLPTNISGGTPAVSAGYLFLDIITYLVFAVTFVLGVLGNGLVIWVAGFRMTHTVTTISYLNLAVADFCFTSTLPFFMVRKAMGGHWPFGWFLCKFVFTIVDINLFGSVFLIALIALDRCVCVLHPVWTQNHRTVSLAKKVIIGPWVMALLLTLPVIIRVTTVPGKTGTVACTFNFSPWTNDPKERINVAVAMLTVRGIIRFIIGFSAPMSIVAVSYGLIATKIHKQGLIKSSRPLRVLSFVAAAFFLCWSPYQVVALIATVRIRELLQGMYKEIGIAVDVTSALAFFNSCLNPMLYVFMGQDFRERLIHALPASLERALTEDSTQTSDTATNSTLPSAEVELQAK

[8] = biological target: Peroxisome proliferator-activated receptor gamma/Nuclear receptor corepressor 2 (Homo sapiens, UniProt P37231+Q9Y618); assay: Counterscreen for NR2E3 inverse agonists: TR-FRET-based biochemical high throughput dose response assay to identify inverse agonists of the interaction between peroxisome proliferator-activated receptor gamma (PPARg) and nuclear receptor co-repressor 2 (NCOR2).; type: functional
[9] = biological target: Photoreceptor-specific nuclear receptor (Homo sapiens, UniProt Q9Y5X4); assay: ligands suppressing NR2E3 nuclear receptor activity – biochemical, TR-FRET, dose response (AID 463256); type: functional
Photoreceptor-specific nuclear receptor, sequence (Q9Y5X4 whole entry): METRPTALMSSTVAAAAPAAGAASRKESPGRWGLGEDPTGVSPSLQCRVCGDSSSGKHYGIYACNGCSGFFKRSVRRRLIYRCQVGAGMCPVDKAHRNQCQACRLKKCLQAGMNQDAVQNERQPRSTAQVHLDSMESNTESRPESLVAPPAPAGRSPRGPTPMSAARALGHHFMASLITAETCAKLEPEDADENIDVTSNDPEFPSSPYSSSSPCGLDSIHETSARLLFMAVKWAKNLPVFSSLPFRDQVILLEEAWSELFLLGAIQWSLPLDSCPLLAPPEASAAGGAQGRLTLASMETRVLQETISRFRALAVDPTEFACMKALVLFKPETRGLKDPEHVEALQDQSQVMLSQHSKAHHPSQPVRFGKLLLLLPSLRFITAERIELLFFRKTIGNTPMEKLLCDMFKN

[10] = viability loss in A549 lung cancer cells – cell-based, CellTiter-Glo luminescence, dry powder, set 5, cytotoxicity control, dose response (AID 743158); type: functional
[11] = viability loss in HEK293T cells – cell-based, ATP luminescence, dry powder, set 3, cytotoxicity control, dose response (AID 743131); type: functional; settings: HEK293
[12] = viability loss in HepG2 hepatoma cells – cell-based, ATP luminescence, dry powder, set 2, cytotoxicity control, dose response (AID 743129); type: functional
[13] = growth inhibition of yeast DHODH-expressing 3D7 parasites – SYBR Green, dry powder samples, dose response (AID 1159570); type: functional, cell-based;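 also: parasite growth measured after 72 hours of compound exposure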
[14] = toxicity to human HepG2 hepatoma cells – cell-based, plate reader, dry powder samples, cytotoxicity control, dose response (AID 1159569); type: functional;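 also: inhibitor potency with signal falling toward the positive control level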
[15] = P. falciparum Dd2 growth inhibitors, dose response, SYBR Green, cherry-picked samples (AID 1159567); type: functional, cell-based
[16] = Dd2 malaria parasite growth inhibition potency – SYBR Green, dry powder samples, dose response (AID 1159566); type: functional, cell-based;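 also: potency for growth inhibition with lower SYBR green DNA signal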
[17] = toxicity to human hepatoma HepG2 cells – cell-based, cherry-picked samples, cytotoxicity control, dose response (AID 1159577); type: functional
[18] = Plasmodium falciparum Dd2 Sybr green parasite growth Measured in Cell-Based and Microorganism Combination System Using Plate Reader - 2153-01_Inhibitor_Dose_DryPowder_Activity_Set3.; type: functional
[19] = growth inhibition of PfATP4-mutant resistant parasites – NITD609-resistant line, SYBR Green, dry powder, dose response (AID 1159571); type: functional, cell-based;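 also: parasites synchronized at ring stage by sorbitol before testing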
[20] = NIH-3T3 fibroblast cytotoxicity, dose response, cytotoxicity control, cell-based, fluorescence, Alamar Blue, secondary assay (AID 2327); type: functional;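 also: NIH-3T3 mouse fibroblasts cultured with fluconazole at 8 µg/mL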
[21] = fluconazole-exposed Candida albicans growth modulators – fluorescence, retest, confirmation (AID 2467); type: functional, cell-based
[22] = biological target: T4, Serine/threonine-protein phosphatase (Candida dubliniensis (strain CD36 / CBS 7987 / NCPF 3949 / NRRLY-17841) (Yeast), UniProt B9W6M3); assay: blockers of CaCl2-induced CDRE-lacZ signaling – S. cerevisiae, luminescence, secondary, dose response (AID 2388); type: functional, cell-based;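 also: yeast reporter cells carrying a calcineurin-responsive lacZ construct stimulated with calcium chloride; luminescent beta-galactosidase reporter signal in whole cells rather than isolated phosphatase activity; potency for inhibition where a drop in reporter signal means calcineurin blockade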
T4 sequence (B9W6M3 whole entry): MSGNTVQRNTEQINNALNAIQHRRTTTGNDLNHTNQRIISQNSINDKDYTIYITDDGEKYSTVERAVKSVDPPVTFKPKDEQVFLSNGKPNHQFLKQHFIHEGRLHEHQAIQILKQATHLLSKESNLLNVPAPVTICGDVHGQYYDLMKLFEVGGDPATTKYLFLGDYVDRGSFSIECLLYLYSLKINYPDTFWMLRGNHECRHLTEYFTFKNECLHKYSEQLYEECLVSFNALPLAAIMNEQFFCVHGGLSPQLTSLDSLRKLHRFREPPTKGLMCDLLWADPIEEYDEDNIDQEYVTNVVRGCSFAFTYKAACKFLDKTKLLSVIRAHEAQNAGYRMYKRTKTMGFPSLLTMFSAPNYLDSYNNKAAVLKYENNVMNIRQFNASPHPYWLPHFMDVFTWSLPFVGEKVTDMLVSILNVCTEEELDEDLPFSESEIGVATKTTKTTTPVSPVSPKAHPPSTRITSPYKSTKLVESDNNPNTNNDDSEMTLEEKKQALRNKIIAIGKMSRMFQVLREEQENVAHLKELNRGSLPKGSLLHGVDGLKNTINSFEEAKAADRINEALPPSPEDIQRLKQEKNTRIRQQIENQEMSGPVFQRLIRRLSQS

Cytochrome P450 2C19 = Cytochrome P450 2C19 (Homo sapiens, UniProt P33261); assay: Cytochrome panel assay with activity outcomes. Panel member name: p450-cyp2c19 Compounds with AC50 equal or less than 10 uM are considered active; type: functional; settings: read-out: AC50
Cytochrome P450 2C19, sequence (P33261 whole entry): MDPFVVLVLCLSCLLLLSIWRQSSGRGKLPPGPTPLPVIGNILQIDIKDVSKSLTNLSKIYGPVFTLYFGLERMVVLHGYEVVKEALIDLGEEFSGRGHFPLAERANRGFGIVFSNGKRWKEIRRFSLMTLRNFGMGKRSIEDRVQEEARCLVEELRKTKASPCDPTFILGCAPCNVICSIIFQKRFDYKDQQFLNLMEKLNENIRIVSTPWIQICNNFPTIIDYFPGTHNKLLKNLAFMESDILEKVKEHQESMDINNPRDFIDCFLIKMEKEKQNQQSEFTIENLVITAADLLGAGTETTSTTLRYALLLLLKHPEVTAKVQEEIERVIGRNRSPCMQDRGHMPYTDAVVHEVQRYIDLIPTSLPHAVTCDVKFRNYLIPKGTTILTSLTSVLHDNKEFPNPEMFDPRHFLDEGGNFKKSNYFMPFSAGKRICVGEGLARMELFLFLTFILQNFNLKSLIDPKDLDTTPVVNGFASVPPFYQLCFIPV

[23] = biological target: Heat shock protein HSP 90-alpha (Homo sapiens, UniProt P07900); type: functional, organism-based
[24] = biological target: ATP-dependent molecular chaperone HSP82 (Candida albicans (strain WO-1) (Yeast), UniProt C4YTQ8); assay: steroid-induced GRE reporter decrease in yeast – S. cerevisiae, luminescence, Hsp90 inhibitor project, dose response (AID 2400); type: functional, cell-based;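 also: beta-galactosidase luminescence from glucocorticoid response element reporter as proxy for Hsp90 function; inhibitor potency where signal loss means Hsp90 inhibition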
ATP-dependent molecular chaperone HSP82, sequence (C4YTQ8 whole entry): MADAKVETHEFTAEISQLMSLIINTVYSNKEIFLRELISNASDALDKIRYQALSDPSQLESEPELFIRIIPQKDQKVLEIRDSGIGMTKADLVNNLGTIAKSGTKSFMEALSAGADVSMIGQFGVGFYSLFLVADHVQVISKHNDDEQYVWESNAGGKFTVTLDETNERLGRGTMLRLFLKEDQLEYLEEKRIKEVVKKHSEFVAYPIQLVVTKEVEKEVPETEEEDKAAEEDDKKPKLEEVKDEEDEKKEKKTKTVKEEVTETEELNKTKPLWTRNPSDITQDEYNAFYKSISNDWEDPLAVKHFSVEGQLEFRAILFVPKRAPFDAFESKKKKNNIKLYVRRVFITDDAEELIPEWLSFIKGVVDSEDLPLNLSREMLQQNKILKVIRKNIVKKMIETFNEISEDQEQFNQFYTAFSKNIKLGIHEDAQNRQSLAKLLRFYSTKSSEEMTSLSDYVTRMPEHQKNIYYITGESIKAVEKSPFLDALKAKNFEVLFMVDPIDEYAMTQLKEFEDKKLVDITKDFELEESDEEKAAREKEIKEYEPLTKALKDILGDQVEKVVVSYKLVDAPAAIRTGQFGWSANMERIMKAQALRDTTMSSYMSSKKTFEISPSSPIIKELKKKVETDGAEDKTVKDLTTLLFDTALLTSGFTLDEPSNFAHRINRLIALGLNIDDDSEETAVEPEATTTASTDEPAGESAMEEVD

[25] = biological target: Beta-2 adrenergic receptor (Homo sapiens, UniProt P07550); assay: ADRB2 activation measured by internalization – cell-based, FAP fluorogen, flow cytometry, cherry pick 1, dose response (AID 588763); type: functional
Beta-2 adrenergic receptor, sequence (P07550 whole entry): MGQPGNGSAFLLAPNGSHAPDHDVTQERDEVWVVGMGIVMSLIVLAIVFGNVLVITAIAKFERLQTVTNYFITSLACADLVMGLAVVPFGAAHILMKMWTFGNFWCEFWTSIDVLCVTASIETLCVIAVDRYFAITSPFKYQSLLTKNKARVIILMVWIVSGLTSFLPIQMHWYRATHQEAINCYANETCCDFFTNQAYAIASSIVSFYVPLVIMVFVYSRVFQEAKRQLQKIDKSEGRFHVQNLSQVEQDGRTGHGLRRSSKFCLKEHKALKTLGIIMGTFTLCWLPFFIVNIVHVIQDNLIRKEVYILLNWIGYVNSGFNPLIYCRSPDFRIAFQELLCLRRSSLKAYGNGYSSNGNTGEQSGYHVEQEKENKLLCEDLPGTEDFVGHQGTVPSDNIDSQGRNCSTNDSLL

[26] = rise of 2N DNA cells, HeLa – IC50, dose response (AID 1117349); type: functional, cell-based
[27] = glucagon-like peptide-1 release potency in STC-1, concentration-response, half-maximal inhibitory concentration in the STC-1 line (AID 1117345); type: functional, cell-based
[28] = rise of 4N DNA cells, HeLa – IC50, dose response (AID 1117351); type: functional, cell-based
[29] = Potency on glucagon-like peptide 1 release, dose-response in NCI-H716 cell line, half maximal inhibitory concentration (AID 1117344); type: functional, cell-based
Cytochrome P450 2D6 = Cytochrome P450 2D6 (Homo sapiens, UniProt P10635);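 also: CYP2D6 member of a cytochrome P450 panel assay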
Cytochrome P450 2D6, sequence (P10635 whole entry): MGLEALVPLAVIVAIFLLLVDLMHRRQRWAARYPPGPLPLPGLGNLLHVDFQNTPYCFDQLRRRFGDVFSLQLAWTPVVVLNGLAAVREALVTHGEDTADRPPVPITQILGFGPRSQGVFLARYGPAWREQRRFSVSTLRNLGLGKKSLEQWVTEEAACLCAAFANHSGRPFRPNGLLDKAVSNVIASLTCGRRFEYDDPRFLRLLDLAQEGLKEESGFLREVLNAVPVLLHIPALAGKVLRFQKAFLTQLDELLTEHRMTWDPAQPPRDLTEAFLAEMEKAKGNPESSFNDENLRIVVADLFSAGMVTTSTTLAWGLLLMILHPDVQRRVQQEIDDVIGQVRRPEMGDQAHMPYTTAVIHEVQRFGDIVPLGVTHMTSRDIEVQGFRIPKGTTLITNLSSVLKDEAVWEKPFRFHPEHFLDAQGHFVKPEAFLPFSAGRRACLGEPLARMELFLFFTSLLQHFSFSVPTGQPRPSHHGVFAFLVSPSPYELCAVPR

Cytochrome P450 2C9 = Cytochrome P450 2C9 (Homo sapiens, UniProt P11712)
Cytochrome P450 2C9, sequence (P11712 whole entry): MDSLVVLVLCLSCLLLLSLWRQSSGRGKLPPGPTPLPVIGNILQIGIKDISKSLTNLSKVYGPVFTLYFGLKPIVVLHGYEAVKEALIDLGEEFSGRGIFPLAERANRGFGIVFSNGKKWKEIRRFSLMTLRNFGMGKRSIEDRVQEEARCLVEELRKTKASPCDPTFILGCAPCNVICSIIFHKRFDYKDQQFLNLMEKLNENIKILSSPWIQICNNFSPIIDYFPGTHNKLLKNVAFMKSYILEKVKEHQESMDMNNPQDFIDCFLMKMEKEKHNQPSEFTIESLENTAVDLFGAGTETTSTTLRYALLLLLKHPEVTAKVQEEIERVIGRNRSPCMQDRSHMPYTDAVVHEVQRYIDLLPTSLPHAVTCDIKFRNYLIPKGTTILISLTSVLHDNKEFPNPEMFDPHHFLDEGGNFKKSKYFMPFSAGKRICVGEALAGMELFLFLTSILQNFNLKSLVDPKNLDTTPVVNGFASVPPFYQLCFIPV

In the case of `CC(C)c1ccc(-c2[nH]c(N3CCCC3)nc3nnc(N)c2-3)cc1`, the EC50 [1] is reported as > 120 µM (not active), the EC50 [2] is reported as 103 µM (active) and the EC50 [3] is reported as > 120 µM (not active). The EC50 [4] was 12.9 µM (active), the EC50 (Streptokinase A) was > 150 µM (not active) and the EC50 (Streptococcus) was > 150 µM (not active). For the same molecule, the CC50 [5] was > 40 µM (active).
With `COc1ccc(Nc2cc(C)nc3ccccc23)cc1` the IC50 (14-3-3 protein gamma) was > 50 µM (not active) and the EC50 [6] was 2.99 µM (active).
In the case of `CCCOc1ccc(C2C(C(=O)c3ccc(C)o3)=C(O)C(=O)N2CCCn2ccnc2)cc1` (centres undefined), the IC50 [7] is reported as 19.7 µM (not active) and the Ki (fMet-Leu-Phe receptor) is reported as 13.8 µM (active).
For `COc1cc2ccccc2cc1C(=O)Nc1ccc2oc(=O)ccc2c1`, the IC50 [8] was 2.86 µM (active) and the IC50 [9] was 2.28 µM (active).
In the case of `CCOC(=O)c1c(-c2ccc(-c3ccccc3)cc2)csc1NC(=O)CNCCN(C)C`, the AC50 [10] is reported as 17.1 µM (active), the AC50 [11] is reported as 13.3 µM (active) and the AC50 [12] is reported as 16.5 µM (active).
For `CO[C@@H]1CN(C)C(=O)c2ccc(NC(=O)Nc3ccccc3Cl)cc2OC[C@@H](C)N(C)C[C@H]1C`, the AC50 [13] was 4.25 µM (active), the AC50 [14] was 62.2 µM (active) and the AC50 [15] was 0.666 µM (active). The AC50 [16] was 0.102 µM (active), the AC50 [17] was > 39 µM (inactive) and the AC50 [18] was 0.446 µM (active). For the same molecule, the AC50 [19] was 0.512 µM (active).
With `Clc1ccccc1C(c1ccccc1)(c1ccccc1)n1ccnc1` [CLOTRIMAZOLE] the EC50 [20] was 11.6 µM (active), the EC50 [2] was 4.3 µM (active) and the EC50 (Streptokinase A) was > 150 µM (not active). The EC50 [21] was 0.628 µM (active), the EC50 [22] was > 180 µM (inactive) and the EC50 (Streptococcus) was 7.15 µM (active). For the same molecule, the AC50 (Cytochrome P450 2C19) was 10 µM (active) and 7.94 µM (inconclusive), the AC50 [23] was < 0.195 µM (active) and the EC50 [24] was > 150 µM (inactive). For the same molecule, the EC50 [25] was 4.69 µM (active), the IC50 [26] was > 10 µM (inactive) and the IC50 [27] was > 40 µM (inactive). For the same molecule, the IC50 [28] was > 10 µM (inactive), the IC50 [29] was 20.2 µM (inactive) and the AC50 (Cytochrome P450 2D6) was 10 µM (active) and 39.8 µM (inconclusive). For the same molecule, the AC50 (Cytochrome P450 2C9) was 1 µM (active) and 316 nM (active).
